The values that follow come from patent publication EP4722219A1 (Gan & Lee Pharmaceuticals Co., Ltd., priority 2023, dated 2024).

For test [1], the target named is T1, AR protein (Homo sapiens, UniProt P10275).
T1 construct: host or cells: VCaP
T1 sequence (P10275 1-920): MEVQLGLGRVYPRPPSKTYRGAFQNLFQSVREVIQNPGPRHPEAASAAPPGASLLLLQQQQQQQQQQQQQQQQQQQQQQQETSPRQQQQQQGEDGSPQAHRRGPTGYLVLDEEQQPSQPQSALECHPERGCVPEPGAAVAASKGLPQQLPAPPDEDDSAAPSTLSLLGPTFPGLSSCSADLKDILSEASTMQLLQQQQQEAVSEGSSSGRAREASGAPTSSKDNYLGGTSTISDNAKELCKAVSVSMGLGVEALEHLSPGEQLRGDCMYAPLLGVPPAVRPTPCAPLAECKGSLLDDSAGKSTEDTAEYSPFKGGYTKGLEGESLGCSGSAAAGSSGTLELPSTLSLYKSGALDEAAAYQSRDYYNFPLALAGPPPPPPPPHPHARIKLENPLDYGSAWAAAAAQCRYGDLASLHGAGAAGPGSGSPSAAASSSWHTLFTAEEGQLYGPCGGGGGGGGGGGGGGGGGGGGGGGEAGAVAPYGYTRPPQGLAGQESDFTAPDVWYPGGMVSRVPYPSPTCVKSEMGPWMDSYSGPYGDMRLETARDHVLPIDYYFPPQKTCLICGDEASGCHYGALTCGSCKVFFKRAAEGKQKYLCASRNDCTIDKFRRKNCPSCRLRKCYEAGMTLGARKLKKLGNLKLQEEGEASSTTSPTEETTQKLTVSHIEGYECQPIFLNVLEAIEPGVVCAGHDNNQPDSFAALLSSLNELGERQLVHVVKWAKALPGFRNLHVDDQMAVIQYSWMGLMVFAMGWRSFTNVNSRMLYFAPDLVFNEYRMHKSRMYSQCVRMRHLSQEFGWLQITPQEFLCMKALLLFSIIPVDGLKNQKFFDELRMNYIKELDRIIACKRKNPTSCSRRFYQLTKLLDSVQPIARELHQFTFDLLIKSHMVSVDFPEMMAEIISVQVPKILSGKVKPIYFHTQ
Description: AR protein degradation in VCaP cells (Western blot). The class given is cell-based. The following applies: 8h. In outline: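 AR-positive VCaP human prostate cancer cells grown in DMEM with 10% FBS were plated in six-well plates at 3×10^5 cells/well and incubated overnight. Compounds were then added at 1 µL/well alongside a solvent control and incubated for 8h. Lysates in RIPA buffer with protease inhibitor were quantified by BCA and run by SDS-PAGE. AR was detected by Western blot, and degradation was calculated from band grayscale normalized to GAPDH.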

Test [2] has as its system LNCaP cells. Description: Inhibition of LNCaP cell proliferation (WST-8). It is filed as cell-based. The following applies: Homo sapiens, LNCaP FGC cells, 96 hours. In outline: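 Cells were seeded and cultured overnight at 37 °C, 5% CO2, then exposed for 96 h to compound at 9 concentrations, 5-fold serial dilution from 10 µM final. Viability was read by WST-8 absorbance at 450 nm.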

Structures are written as SMILES. Bounds are passed on as bounds.

Take `N#Cc1ccc(O[C@H]2CC[C@H](NC(=O)c3ccc(N4CCC(N5CC6(CCC7(CC6)COc6c7ccc7c6CN(C6CCC(=O)NC6=O)C7=O)C5)CC4)nn3)CC2)cc1Cl` (relative stereo) [A-P-1, N-((1r,4r)-4-(3-chloro-4-cyanophenoxy)cyclohexyl)-6-(4-(7'-(2,6-dioxopiperidin-3-yl)-6'-oxo-7',8'-dihydro-2'-H,6'-H-dihydro[azetidine-3,1'-cyclohexane-4',3"-furo[2,3-e]isoindol]-1-yl)piperidin-1-yl)pyridazine-3-carboxamide]: the “Degradation rate of AR protein in VCaP cells” value (“Degradation rate of AR protein” below) in test [1] (0.5 nM) is recorded as 69%; in test [1] (5 nM) it was 82%. Besides, the IC50 in test [2] is greater than 10 µM.

With `COc1cc(O[C@H]2C(C)(C)[C@H](NC(=O)c3ccc(N4CCC(CN5CC6(CCC7(CC6)COc6c7ccc7c6CN(C6CCC(=O)NC6=O)C7=O)C5)CC4)cc3)C2(C)C)ccc1C#N` (relative stereo) [A-P-3], the “Degradation rate of AR protein” value worked out at 53% in test [1] (0.5 nM) and 87% in test [1] (5 nM). Besides, in test [2], the IC50 turned out to be 3.43 µM.

In the case of `COc1cc(O[C@H]2C(C)(C)[C@H](NC(=O)c3ccc(N4CCC(C)(CN5CC6(CCC7(CC6)COc6c7ccc7c6CN(C6CCC(=O)NC6=O)C7=O)C5)CC4)cc3)C2(C)C)ccc1C#N` (relative stereo) [A-P-4], the “Degradation rate of AR protein” value is on record as 50% in test [1] (0.5 nM) and 78% in test [1] (5 nM). The IC50 in test [2] was 3.52 µM.

In the case of `COc1cc(O[C@H]2C(C)(C)[C@H](NC(=O)c3ccc(N4CCC(F)(CN5CC6(CCC7(CC6)COc6c7ccc7c6CN(C6CCC(=O)NC6=O)C7=O)C5)CC4)cc3)C2(C)C)ccc1C#N` (relative stereo) [A-P-5], the “Degradation rate of AR protein” value in test [1] (0.5 nM) came out at 38%; in test [1] (5 nM), 73%. Also, the IC50 in test [2] was 1 µM.

With `N#Cc1ccc(O[C@H]2CC[C@H](NC(=O)c3ccc(N4CCC(N5CCC6(CC5)CCC5(CC6)COc6c5ccc5c6CN(C6CCC(=O)NC6=O)C5=O)CC4)nn3)CC2)cc1Cl` (relative stereo) [A-P-7, N-((1r,4r)-4-(3-chloro-4-cyanophenoxy)cyclohexy 1)-6-(4-(7-(2,6-dioxopiperidin-3-yl)-6-oxo-7,8-dihydro-2H,6H-dipyridyl[2,3-e]isoindole-3,1'-cyclohexane-4',4'"-piperidin]-1"-yl)pyridazine-3-carboxamide], the entries for the “Degradation rate of AR protein” value in test [1] (0.5 nM) and in test [1] (5 nM) were 79% and 89%, respectively. The same molecule registered an IC50 in test [2] of 1.88 µM.

Consider `Cn1c(=O)n(C2CCC(=O)NC2=O)c2cc3c(cc21)C1(CCN(C2CC4(CCN(c5ccc(C(=O)N[C@H]6CC[C@H](Oc7ccc(C#N)c(Cl)c7)CC6)nn5)CC4)C2)CC1)CO3` (relative stereo) [A-P-12, N-((1r,4r)-4-(3-chloro-4-cyanophenoxy)cyclohexy 1)-6-(2-(3-(2,6-dioxopiperidin-3-yl)-1-methyl-2-oxo-2,3-dihydro-1H,6H-spiro[benzofuro[5,6-d]imidazole-7,4'-piperidin]-1'-yl)-7-azaspiro[3.5]nonan-7-yl)pyridazine-3-carboxamide], for which the “Degradation rate of AR protein” value in test [1] (0.5 nM) and in test [1] (5 nM) was 88% throughout. In test [2], this molecule showed an IC50 of 8.11 µM.

On to `COc1cc(O[C@H]2C(C)(C)[C@H](NC(=O)c3ccc(N4CCC5(CC4)CC(N4CCC6(CC4)COc4cc7c(cc46)n(C)c(=O)n7C4CCC(=O)NC4=O)C5)nn3)C2(C)C)ccc1C#N` (relative stereo) [A-P-14, N-((1r,3r)-3-(4-cyano-3-methoxyphenoxy)-2,2,4,4-tetramethylcyclobutyl)-6-(2-(3-(2,6-dioxopiperidin-3-yl)-1-methyl-2-oxo-2,3-dihydro-1H,6H-spiro[benzofuro[5,6-d]imidazole-7,4'-piperidin]-1'-yl)-7-azaspiro[3.5]nonan-7-yl)pyridazine-3-carboxamide], for which the “Degradation rate of AR protein” value was found to be 63% in test [1] (0.5 nM) and 82% in test [1] (5 nM). It took 1.1 µM to reach half-maximal inhibition in test [2] (IC50).

In the case of `COc1cc(O[C@H]2C(C)(C)[C@H](NC(=O)c3ccc(N4CCC(C)(CN5CCC6(CC5)COc5cc7c(cc56)n(C)c(=O)n7C5CCC(=O)NC5=O)CC4)cc3)C2(C)C)ccc1C#N` (relative stereo) [A-P-16], the “Degradation rate of AR protein” value stood at 66% in test [1] (0.5 nM) and 83% in test [1] (5 nM). This molecule had an IC50 in test [2] greater than 90 µM.

Turning to `COc1cc(O[C@H]2CC[C@H](NC(=O)c3ccc(N4CCC(CN5CCC6(CC5)COc5cc7c(cc56)n(C)c(=O)n7C5CCC(=O)NC5=O)CC4)nn3)CC2)ccc1C#N` (relative stereo) [A-P-17], the entries for the “Degradation rate of AR protein” value in test [1] (0.5 nM) and in test [1] (5 nM) were 81% and 75%, respectively. In test [2], this molecule came in with an IC50 of 91.2 µM.

On to `COc1cc(O[C@H]2C(C)(C)[C@H](NC(=O)c3ccc(N4CCC5(CC4)CC(N4CCC6(CC4)COc4cc7c(cc46)n(C)c(=O)n7C4CCC(=O)NC4=O)C5)cc3)C2(C)C)ccc1C#N` (relative stereo) [A-P-21], for which the “Degradation rate of AR protein” value in test [1] (0.5 nM) is listed as 57%; in test [1] (5 nM) it was 71%. Moreover, the midpoint of inhibition in test [2], the IC50, lay at 8.23 µM.

`COc1cc(O[C@H]2C(C)(C)[C@H](NC(=O)c3ccc(N4CCC(N5CC6(CCC7(CC6)COc6c7ccc7c6CN(C6CCC(=O)NC6=O)C7=O)C5)CC4)cc3)C2(C)C)ccc1C#N` (stereo partly drawn) [A-P-2] came in with an AR protein degradation rate at fixed concentration (%) at 0.0005 µM in test [1] (0.5 nM) of 50%. Moreover, the AR protein degradation rate at fixed concentration (%) at 0.005 µM in test [1] (5 nM) is 83%. Besides, the IC50 in test [2] turned out to be 2.89 µM.

The molecule `Cn1c(=O)n(C2CCC(=O)NC2=O)c2cc3c(cc21)C1(CCN(CC2CCN(c4ccc(C(=O)N[C@H]5CC[C@H](Oc6ccc(C#N)c(Cl)c6)CC5)nn4)CC2)CC1)CO3` (stereo partly drawn) [A-P-10] gave an AR protein degradation rate at fixed concentration (%) at 0.0005 µM in test [1] (0.5 nM) of 75%. Besides, the AR protein degradation rate at fixed concentration (%) at 0.005 µM in test [1] (5 nM) was found to be 78%. The same molecule came in with an IC50 in test [2] of 137 µM.

Take `COc1cc(O[C@H]2C(C)(C)[C@H](NC(=O)c3ccc(N4CCC(F)(CN5CCC6(CC5)COc5cc7c(cc56)n(C)c(=O)n7C5CCC(=O)NC5=O)CC4)cc3)C2(C)C)ccc1C#N` (stereo partly drawn) [A-P-13]: the AR protein degradation rate at fixed concentration (%) at 0.0005 µM in test [1] (0.5 nM) was determined as 44%. Further, in test [1] (5 nM), the AR protein degradation rate at fixed concentration (%) at 0.005 µM stood at 77%. Moreover, in test [2], it took 61 µM to reach half-maximal inhibition (IC50).

In the case of `COc1cc(O[C@H]2CC[C@H](NC(=O)c3ccc(N4CCC(N5CCC6(CC5)COc5cc7c(cc56)n(C)c(=O)n7C5CCC(=O)NC5=O)CC4)nn3)CC2)ccc1C#N` (stereo partly drawn) [A-P-18, N-((1r,4r)-4-(4-cyano-3-methoxyphenoxy)cyclohexyl)-6-(4-(3-(2,6-dioxopyridyl-3-yl)-1-methyl-2-oxo-2,3-dihydro-1H,6H-spiro[benzofuro[5,6-d]imidazole-7,4'-piperidin]-1'-yl)piperidin-1-yl)pyridazine-3-carboxamide], the AR protein degradation rate at fixed concentration (%) at 0.0005 µM in test [1] (0.5 nM) was determined as 76%. The AR protein degradation rate at fixed concentration (%) at 0.005 µM in test [1] (5 nM) was 73%. For the same molecule, in test [2], half-maximal inhibition (IC50) required 120 µM.

For the molecule `COc1cc(O[C@H]2CC[C@H](NC(=O)c3ccc(N4CCC(CN5CCC6(CC5)COc5c6ccc6c5n(C)c(=O)n6C5CCC(=O)NC5=O)CC4)nn3)CC2)ccc1C#N` (stereo partly drawn) [A-P-22], the AR protein degradation rate at fixed concentration (%) at 0.0005 µM in test [1] (0.5 nM) stood at 84%. This molecule yielded an AR protein degradation rate at fixed concentration (%) at 0.005 µM in test [1] (5 nM) of 69%. The molecule further had a 50% inhibitory concentration (IC50) in test [2] of 47.6 µM.
